Data published in patent publication US11638427B2, “Methods and compositions for altering secondary metabolites in plants” (Impello Biosciences, Inc, priority 2020, dated 2023).
Values joined by “and” are separate entries in the source; they are usually repeats but may differ in a detail not shown here. Equal entries are not always repeated.

Tested on: CBDRx Cherry hemp clones
Test: Foliar spray of MS, MDJ and MS+MDJ on hemp clones: biomass, cannabinoid and terpene analysis
Type: in vivo, Cannabis spp.
Design: CBDA / CBD / THCA / Total CBG / Total cannabinoids: unit not given here
Conditions: for plants died before the end of the experiment: four plants per treatment group
Experimental: Methyl salicylate (MS) is an antagonistic compound to the jasmonates. To investigate the effect of MS alone and in conjunction with MDJ, MS (CAS No.: 119-36-8), MDJ, and the combination (MS+MDJ) were applied by foliar spray to CBDRx Cherry hemp clones once per week during both vegetative and flowering phases. Plants were transplanted into 1-gallon pots with Red's soil and put into vegetative light cycle (18L/6D). […] Plants were grown under a total of 12 Boost (Thrive Agritech, NY) 130-watt LED lights set to 18L: 6D photoperiod during the vegetative phase (2 weeks) and this was followed by a 12L: 12D photoperiod during the flowering phase (7 weeks), using the same lighting fixtures. Throughout the nine weeks, all plants were watered when needed with Jack's nutrients.
MS or MDJ treatments were applied at the following concentrations: [1 mM], [4.25 mM], [7.5 mM] and [10 mM]. Each concentration was prepared from a one molar stock solution diluted with RO water and TWEEN®-20 (1M stock) was added. Each plant was sprayed till dripping, which was approximately 50-75 ml. To apply the combination of the two biochemicals, MS and MDJ were sprayed separately but simultaneously, to ensure each compound was applied evenly onto the plant. Each compound was applied using a SPRAYMASTER Chemical Sprayer (King of Prussia, Pa.).
Plants were harvested two months after transplant. After harvesting, plants were air dried at room temperature for two weeks. Once plants were sufficiently dry, above ground dry weights were recorded and dried flower samples were collected and sent to a third-party lab for terpene and cannabinoid analysis. Two plants (#3 and #4) in treatment group MDJ [7.5] mM, two plants (#3 and #4) in MS [4.25] mM, one plant (#4) in MS [7.5], and one plant (#4) in MDJ [10] died before the end of the experiment.

[1] = 1 mM foliar spray, Avg. of group
[2] = 1 mM foliar spray, individual plant
[3] = 4.25 mM foliar spray, Avg. of group
[4] = 4.25 mM foliar spray, individual plant
[5] = 7.5 mM foliar spray, Avg. of group
[6] = 7.5 mM foliar spray, individual plant
[7] = 10 mM foliar spray, Avg. of group
[8] = 10 mM foliar spray, individual plant

COC(=O)c1ccccc1O [MS, Methyl salicylate] was tested, and the Alpha-bisabolol [1] was 0.08263 % wt/wt, the Alpha-humulene [1] was 0.07955 % wt/wt and the Beta-caryophyllene [1] was 0.2069 % wt/wt. It also gave a CBCA [1] of 0.715, a CBD [1] of 0.105 and a CBDA [1] of 13.675. For the same molecule, the CBGA [1] was 0.365, the Limonene [1] was 0.1101 % wt/wt and the THCA [1] was 0.6. The “Total CBD” value [1] was 12.1025, the “Total CBG” value [1] was 0.32 and the Total cannabinoids [1] was 15.46. For the same molecule, the “Total d9THC” value [1] was 0.525, the alpha-pinene [1] was 0 % wt/wt and the beta-myrcene [1] was 0.8188 % wt/wt. For the same molecule, the beta-pinene [1] was 0.02077 % wt/wt, the total terpenes [1] was 1.435 % wt/wt and the Alpha-bisabolol [2] was 0.0925 % wt/wt and 0.1053 % wt/wt and 0.1236 % wt/wt and 0.00912 % wt/wt. The Alpha-humulene [2] was 0.076 % wt/wt and 0.0724 % wt/wt and 0.0922 % wt/wt and 0.0776 % wt/wt, the Beta-caryophyllene [2] was 0.1974 % wt/wt and 0.1911 % wt/wt and 0.243 % wt/wt and 0.1959 % wt/wt and the CBCA [2] was 0.82 and 0.64 and 0.67 and 0.73. For the same molecule, the CBD [2] was 0.13 and 0 and 0.12 and 0.17, the CBDA [2] was 15.19 and 12.85 and 13.24 and 13.42 and the CBGA [2] was 0.42 and 0.34 and 0.32 and 0.38. The Limonene [2] was 0.1096 % wt/wt and 0.11 % wt/wt and 0.1101 % wt/wt and 0.1106 % wt/wt, the THCA [2] was 0.66 and 0.56 and 0.58 and 0.6 and the “Total CBD” value [2] was 13.45 and 11.27 and 11.74 and 11.95. For the same molecule, the “Total CBG” value [2] was 0.37 and 0.3 and 0.28 and 0.33, the Total cannabinoids [2] was 17.22 and 14.39 and 14.93 and 15.3 and the “Total d9THC” value [2] was 0.58 and 0.49 and 0.51 and 0.52. The alpha-pinene [2] was 0 % wt/wt, the beta-myrcene [2] was 0.7692 % wt/wt and 0.8926 % wt/wt and 0.845 % wt/wt and 0.7684 % wt/wt and the beta-pinene [2] was 0.0215 % wt/wt and 0.0201 % wt/wt and 0.021 % wt/wt and 0.0205 % wt/wt. The total terpenes [2] was 1.36 % wt/wt (2×) and 1.48 % wt/wt and 1.54 % wt/wt, the Alpha-bisabolol [3] was 0.1143 % wt/wt and the Alpha-humulene [3] was 0.0794 % wt/wt. It also gave a Beta-caryophyllene [3] of 0.1996 % wt/wt, a CBCA [3] of 0.61 and a CBD [3] of 0.16. For the same molecule, the CBDA [3] was 11.8, the CBGA [3] was 0.275 and the Limonene [3] was 0.1 % wt/wt. For the same molecule, the THCA [3] was 0.51, the “Total CBD” value [3] was 10.505 and the “Total CBG” value [3] was 0.24. For the same molecule, the Total cannabinoids [3] was 13.355, the “Total d9THC” value [3] was 0.45 and the alpha-pinene [3] was 0 % wt/wt. It also gave a beta-myrcene [3] of 0.7751 % wt/wt, a beta-pinene [3] of 0.0197 % wt/wt and a total terpenes [3] of 1.38 % wt/wt. For the same molecule, the “plants died before the end of the experiment” value (4.25 mM foliar spray) was “two plants”, the Alpha-bisabolol [4] was 0.1185 % wt/wt and 0.1101 % wt/wt and the Alpha-humulene [4] was 0.0819 % wt/wt and 0.0769 % wt/wt. The Beta-caryophyllene [4] was 0.2091 % wt/wt and 0.19 % wt/wt, the CBCA [4] was 0.61 and the CBD [4] was 0.15 and 0.17. For the same molecule, the CBDA [4] was 11.88 and 11.72, the CBGA [4] was 0.27 and 0.28 and the Limonene [4] was 0.1042 % wt/wt and 0.0958 % wt/wt. For the same molecule, the THCA [4] was 0.52 and 0.5, the “Total CBD” value [4] was 10.57 and 10.44 and the “Total CBG” value [4] was 0.24. The Total cannabinoids [4] was 13.43 and 13.28, the “Total d9THC” value [4] was 0.46 and 0.44 and the alpha-pinene [4] was 0 % wt/wt. The beta-myrcene [4] was 0.8061 % wt/wt and 0.744 % wt/wt, the beta-pinene [4] was 0.0209 % wt/wt and 0.0185 % wt/wt and the total terpenes [4] was 1.43 % wt/wt and 1.33 % wt/wt. The Alpha-bisabolol [5] was 0.1235 % wt/wt, the Alpha-humulene [5] was 0.09093 % wt/wt and the Beta-caryophyllene [5] was 0.23 % wt/wt. The CBCA [5] was 0.66, the CBD [5] was 0.1833 and the CBDA [5] was 12.833. It also gave a CBGA [5] of 0.41, a Limonene [5] of 0.09533 % wt/wt and a THCA [5] of 0.57. For the same molecule, the “Total CBD” value [5] was 11.44, the “Total CBG” value [5] was 0.356 and the Total cannabinoids [5] was 14.656. The “Total d9THC” value [5] was 0.5, the alpha-pinene [5] was 0 % wt/wt and the beta-myrcene [5] was 0.7014 % wt/wt. For the same molecule, the beta-pinene [5] was 0 % wt/wt, the total terpenes [5] was 1.343 % wt/wt and the “plants died before the end of the experiment” value (7.5 mM foliar spray) was “one plant”. For the same molecule, the Alpha-bisabolol [6] was 0.1154 % wt/wt and 0.1201 % wt/wt and 0.1349 % wt/wt, the Alpha-humulene [6] was 0.0878 % wt/wt and 0.083 % wt/wt and 0.102 % wt/wt and the Beta-caryophyllene [6] was 0.2204 % wt/wt and 0.2101 % wt/wt and 0.2595 % wt/wt. The CBCA [6] was 0.68 (2×) and 0.62, the CBD [6] was 0.3 and 0.1 and 0.15 and the CBDA [6] was 12.97 and 12.23 and 13.3. The CBGA [6] was 0.4 and 0.37 and 0.46, the Limonene [6] was 0.0902 % wt/wt and 0.0968 % wt/wt and 0.099 % wt/wt and the THCA [6] was 0.57 and 0.55 and 0.59. The “Total CBD” value [6] was 11.68 and 10.83 and 11.81, the “Total CBG” value [6] was 0.35 and 0.32 and 0.4 and the Total cannabinoids [6] was 14.92 and 13.87 and 15.18. The “Total d9THC” value [6] was 0.5 and 0.48 and 0.52, the alpha-pinene [6] was 0 % wt/wt and the beta-myrcene [6] was 0.6564 % wt/wt and 0.7151 % wt/wt and 0.7328 % wt/wt. The beta-pinene [6] was 0 % wt/wt, the total terpenes [6] was 1.27 % wt/wt and 1.32 % wt/wt and 1.44 % wt/wt and the Alpha-bisabolol [7] was 0.109 % wt/wt. The Alpha-humulene [7] was 0.07612 % wt/wt, the Beta-caryophyllene [7] was 0.1899 % wt/wt and the CBCA [7] was 0.73. It also gave a CBD [7] of 0.155, a CBDA [7] of 14.5975 and a CBGA [7] of 0.4775. The Limonene [7] was 0.1418 % wt/wt, the THCA [7] was 0.625 and the “Total CBD” value [7] was 12.96. For the same molecule, the “Total CBG” value [7] was 0.42, the Total cannabinoids [7] was 16.585 and the “Total d9THC” value [7] was 0.55. The alpha-pinene [7] was 0.01702 % wt/wt, the beta-myrcene [7] was 1.084 % wt/wt and the beta-pinene [7] was 0.02447 % wt/wt. The total terpenes [7] was 1.725 % wt/wt, the Alpha-bisabolol [8] was 0.1326 % wt/wt and 0.0981 % wt/wt and 0.1139 % wt/wt and 0.0915 % wt/wt and the Alpha-humulene [8] was 0.0912 % wt/wt and 0.0723 % wt/wt and 0.0736 % wt/wt and 0.0674 % wt/wt. The Beta-caryophyllene [8] was 0.2182 % wt/wt and 0.1794 % wt/wt and 0.192 % wt/wt and 0.1699 % wt/wt, the CBCA [8] was 0.71 and 0.73 and 0.72 and 0.76 and the CBD [8] was 0.17 and 0.12 and 0.33 and 0. For the same molecule, the CBDA [8] was 15.33 and 14.37 and 13.89 and 14.8, the CBGA [8] was 0.5 (2×) and 0.46 and 0.45 and the Limonene [8] was 0.213 % wt/wt and 0.1272 % wt/wt and 0.113 % wt/wt and 0.1141 % wt/wt. The THCA [8] was 0.65 and 0.63 (2×) and 0.59, the “Total CBD” value [8] was 13.61 and 12.73 and 12.52 and 12.98 and the “Total CBG” value [8] was 0.44 (2×) and 0.4 (2×). For the same molecule, the Total cannabinoids [8] was 17.36 and 16.31 and 15.98 and 16.69, the “Total d9THC” value [8] was 0.57 and 0.55 and 0.52 and 0.56 and the alpha-pinene [8] was 0.0398 % wt/wt and 0.0283 % wt/wt and 0 % wt/wt (2×). The beta-myrcene [8] was 1.6091 % wt/wt and 0.9913 % wt/wt and 0.8332 % wt/wt and 0.9015 % wt/wt, the beta-pinene [8] was 0.0299 % wt/wt and 0.023 % wt/wt and 0.0257 % wt/wt and 0.0193 % wt/wt and the total terpenes [8] was 2.43 % wt/wt and 1.6 % wt/wt and 1.43 % wt/wt and 1.44 % wt/wt. The total terpene content (application of 1 mM or 4.25 mM) was “increased” and the “Aboveground fresh weight and dried weight compared to the control plants” value (at both 1 mM and 10 mM) was “significantly reduced”.
